Measured values taken from patent publication US12662491B2 (Redona Therapeutics, Inc., priority 2020, dated 2026).
Structures can show the parent of a compound that is named as a salt.

target: T1, Zcchc11 enzyme (Homo sapiens, UniProt Q5TAX3); experiment: TUTase assay (Zcchc11 assay, Lin28a-dependent polyuridylation of pre-let-7); assay type: biochemical; conditions: Lin28a-dependent Zcchc11 (Z11) TUTase activity; read-out: Potency Lin28a-dep Z11 IC50
T1 construct: made in house; host or cells: HEK293 cells (Zcchc11); E. coli Rosetta II (LIN28A)
T1 sequence (Q5TAX3 212-1420): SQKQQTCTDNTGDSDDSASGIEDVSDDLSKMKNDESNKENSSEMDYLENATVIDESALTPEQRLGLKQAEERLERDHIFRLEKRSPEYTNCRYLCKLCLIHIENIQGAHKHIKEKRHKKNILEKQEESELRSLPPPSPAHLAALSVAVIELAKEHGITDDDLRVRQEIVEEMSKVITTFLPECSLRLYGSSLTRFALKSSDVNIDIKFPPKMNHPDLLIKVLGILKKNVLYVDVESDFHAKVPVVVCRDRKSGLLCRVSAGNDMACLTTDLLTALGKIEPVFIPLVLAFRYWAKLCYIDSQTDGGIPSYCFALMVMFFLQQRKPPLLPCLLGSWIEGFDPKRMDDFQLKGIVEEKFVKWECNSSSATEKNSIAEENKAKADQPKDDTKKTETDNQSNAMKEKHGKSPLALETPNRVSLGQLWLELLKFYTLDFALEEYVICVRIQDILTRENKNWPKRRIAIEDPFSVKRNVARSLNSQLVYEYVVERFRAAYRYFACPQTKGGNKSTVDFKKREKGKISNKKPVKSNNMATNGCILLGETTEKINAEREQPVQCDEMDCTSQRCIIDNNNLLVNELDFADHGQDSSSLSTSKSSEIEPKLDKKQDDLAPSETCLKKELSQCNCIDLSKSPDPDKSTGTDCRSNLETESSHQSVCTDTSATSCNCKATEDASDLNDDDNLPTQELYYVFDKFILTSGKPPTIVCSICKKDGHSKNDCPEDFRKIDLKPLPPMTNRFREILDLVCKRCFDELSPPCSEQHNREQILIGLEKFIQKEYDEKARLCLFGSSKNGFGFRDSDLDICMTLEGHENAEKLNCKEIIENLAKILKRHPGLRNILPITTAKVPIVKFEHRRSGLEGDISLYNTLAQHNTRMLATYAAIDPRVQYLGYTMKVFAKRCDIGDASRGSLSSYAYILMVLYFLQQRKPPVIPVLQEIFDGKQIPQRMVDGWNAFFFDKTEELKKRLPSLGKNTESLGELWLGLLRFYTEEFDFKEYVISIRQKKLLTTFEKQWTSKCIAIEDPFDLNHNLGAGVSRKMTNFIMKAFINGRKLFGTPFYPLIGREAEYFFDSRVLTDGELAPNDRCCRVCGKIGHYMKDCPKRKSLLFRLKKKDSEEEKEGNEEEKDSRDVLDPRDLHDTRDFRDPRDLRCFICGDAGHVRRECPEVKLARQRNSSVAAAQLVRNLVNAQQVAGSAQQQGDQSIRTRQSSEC
Procedure: The purpose of the Zcchc11 assay is to determine compound potency against Zcchc11 enzyme through the measurement of IC50. Compound inhibition is measured as a function of polyuridine tails added to RNA substrates in the presence of active TUTase, UTP, and inhibitor. The Zcchc11 assay was done in a black, non-binding, 384 well plate (Corning #3575). All steps were performed at room temperature. For a typical assay, a 29 ul aliquot of assay buffer (50 mM HEPES pH 7.3, 150 mM KCl, 5 mM MgCl2, 10 mM DTT, 0.01% Triton X-100, 40 U/ml RNAsin (Promega)) containing LIN28A protein (final concentration: 10 nM) is added to each well. Next, 1 ul of compound in 100% DMSO is transferred from a compound dilution plate in which the compound is serially diluted. Next, 10 ul of a 5× mix of Zcchc11 and RNA substrate (5′-fluorescein labeled pre-let-7 miRNA (Dharmacon)) is added (final concentrations: 0.2 nM and 2 nM, respectively). The plate is placed on a plate shaker for 30 seconds to produce mixing, then incubated for 30 minutes. Next, 10 ul of a 5× mix of UTP and the quenching probe (3′-rhodamine labeled A20, polyadenosine nucleotide, (IDT)) is added (final concentrations: 5 uM and 4 nM, respectively). The plate is immediately placed in a Biotek Cytation 5 plate reader, and the time-dependent decrease in fluorescein fluorescence resulting from annealing of the A20 probe to polyuridine tails is recorded, using the kinetics mode of the reader. Reaction rates are obtained using linear fits to the early portion of progress curves. IC50 values are calculated using a four parameter fit with 100% enzyme activity determined from the DMSO control and 0% activity from control samples lacking UTP.
The LIN28A protein was expressed in and purified from E. coli, strain Rosetta II (Novagen). The entire coding sequence of the human, wild-type protein was cloned into expression vector pMAL (NEB), down-stream from a maltose-binding protein tag. The linker sequence contained a TEV protease cleavage site. The protein was purified from bacterial extracts using an MBP-Trap column (GE Healthcare Life Sciences), followed by tag cleavage and removal of the tag by ion-exchange chromatography. When necessary, contaminating bacterial RNA was removed using the procedure describe by Faehnle C R. et al. (2017) Multi-domain utilization by TUT4 and TUT7 in control of let-7 biogenesis. Nat Struct Mol Biol, 24:658-665.
The Zcchc11 protein was expressed in and purified from HEK293 cells. A truncated protein comprising residues 212-1420 of the human sequence was cloned into expression vector pTT5 (Viva Biotech) down-stream from a maltose-binding protein tag. The linker sequence contained a TEV protease cleavage site, and a FLAG tag was added to the carboxyl terminus of the protein. The protein was purified from cell extracts using an MBP-Trap column (GE Healthcare Life Sciences), followed by tag cleavage and further enrichment of the full length construct using anti-FLAG affinity media (Sigma Aldrich).
“+” represents an IC50 value that is greater than 50 μM; “++” represents an IC50 value that is greater than 10 μM and equal to or less than 50 μM; “+++” represents an IC50 value that is greater than 1 μM and equal to or less than 10 μM; and “++++” represents an IC50 value that is equal to or less than 1 μM.

Compound | IC50 [nM]
CN(C(=O)[C@H]1CCCN1c1cc2c(cc1Cl)c(=O)c(C(=O)O)cn2-c1cnccn1)c1ccccn1 (racemic) [Compound 178, rac-(R)-6-chloro-7-(2-(methyl (pyridin-2-yl)carbamoyl)pyrrolidin-1-yl)-4-oxo-1-(pyrazin-2-yl)-1,4-dihydro-quinoline-3-carboxylic acid] | > 50000
O=C(O)c1cn(-c2cnc3c(n2)COC3)c2cc(N3CCC[C@@H]3COc3ncccc3Cl)c(Cl)cc2c1=O (racemic) [Compound 182, rac-(R)-6-chloro-7-(2-(((3-chloropyridin-2-yl)oxy)methyl)pyrrolidin-1-yl)-1-(5,7-dihydrofuro [3,4-b]pyrazin-2-yl)-4-oxo-1,4-dihydro-quinoline-3-carboxylic acid] | ≤ 1000
Cn1cc(-n2cc(C(=O)O)c(=O)c3cc(C#N)c(N4CCC[C@@H]4COc4ncccc4F)nc32)cn1 (racemic) [Compound 183, rac-(R)-6-cyano-7-(2-(((3-fluoropyridin-2-yl)oxy)methyl)pyrrolidin-1-yl)-1-(1-methyl-1H-pyrazol-4-yl)-4-oxo-1,4-dihydro-1,8-naphthyridine-3-carboxylic acid] | 1000 to 10000
CN(C)C1CN(c2ccc(-n3cc(C(=O)O)c(=O)c4cc(Cl)c(N5CCC[C@@]5(C)COc5ncccc5Cl)nc43)cn2)C1 (racemic) [Compound 186, rac-(R)-6-chloro-7-(2-(((3-chloropyridin-2-yl)oxy)methyl)-2-methyl-pyrrolidin-1-yl)-1-(6-(3-(dimethyl-amino)azetidin-1-yl)pyridin-3-yl)-4-oxo-1,4-dihydro-1,8-naphthyridine-3-carboxylic acid] | ≤ 1000
CN(C)C1CN(c2ccc(-n3cc(C(=O)O)c(=O)c4cc(F)c(N5CC(c6ccc(O)nc6)C[C@@H]5COc5ncccc5Cl)cc43)cn2)C1 (mixture of isomers) [Compound 189, rac-7-((2R)-2-(((3-chloropyridin-2-yl)oxy)methyl)-4-(6-hydroxy-pyridin-3-yl)pyrrolidin-1-yl)-1-(6-(3-(dimethyl-amino)azetidin-1-yl)pyridin-3-yl)-6-fluoro-4-oxo-1,4-dihydro-quinoline-3-carboxylic acid] | ≤ 1000
O=C(O)c1cn(-c2cnn(C3CNC3)c2)c2nc(N3CCC[C@@H]3COc3ncccc3F)c(Cl)cc2c1=O (racemic) [Compound 192, rac-(R)-1-(1-(azetidin-3-yl)-1H-pyrazol-4-yl)-6-chloro-7-(2-(((3-fluoropyridin-2-yl)oxy)methyl)pyrrolidin-1-yl)-4-oxo-1,4-dihydro-1,8-naphthyridine-3-carboxylic acid hydrochloride] | ≤ 1000

Second part, the compound after the results:

IC50 [nM] | Compound
≤ 1000 | O=C(O)c1cn(-c2cnccn2)c2cc(N3CCC[C@@H]3COc3ncccc3F)c(F)cc2c1=O (racemic) [Compound 174, rac-(R)-6-fluoro-7-(2-(((3-fluoropyridin-2-yl)oxy)methyl)pyrrolidin-1-yl)-4-oxo-1-(pyrazin-2-yl)-1,4-dihydro-quinoline-3-carboxylic acid]
≤ 1000 | CN1CC(n2cc(-n3cc(C(=O)O)c(=O)c4cc(Cl)c(N5CCC[C@@H]5COc5ncccc5Cl)cc43)cn2)C1 (racemic) [Compound 175, rac-(R)-6-chloro-7-(2-(((3-chloropyridin-2-yl)oxy)methyl)pyrrolidin-1-yl)-1-(1-(1-methylazetidin-3-yl)-1H-pyrazol-4-yl)-4-oxo-1,4-dihydro-quinoline-3-carboxylic acid]
≤ 1000 | Cc1c(-n2cc(C(=O)O)c(=O)c3cc(Cl)c(N4CCC[C@@H]4COc4ncccc4Cl)cc32)cnn1C (racemic) [Compound 179, rac-(R)-6-chloro-7-(2-(((3-chloropyridin-2-yl)oxy)methyl)pyrrolidin-1-yl)-1-(1,5-dimethyl-1H-pyrazol-4-yl)-4-oxo-1,4-dihydro-quinoline-3-carboxylic acid]
≤ 1000 | Nc1ccc(-n2cc(C(=O)O)c(=O)c3cc(Cl)c(N4CC(c5ccccn5)C[C@@H]4COc4ncccc4Cl)cc32)cn1 (mixture of isomers) [Compound 180, rac-1-(6-aminopyridin-3-yl)-6-chloro-7-((2R)-2-(((3-chloropyridin-2-yl)oxy)methyl)-4-(pyridin-2-yl)pyrrolidin-1-yl)-4-oxo-1,4-dihydro-quinoline-3-carboxylic acid]
≤ 1000 | Cc1ccc(Cl)c(OC[C@H]2CCCN2c2cc3c(cc2Cl)c(=O)c(C(=O)O)cn3-c2ccc(N3CC(N(C)C)C3)nc2)n1 (racemic) [Compound 187, rac-(R)-6-chloro-7-(2-(((3-chloro-6-methylpyridin-2-yl)oxy)methyl)pyrrolidin-1-yl)-1-(6-(3-(dimethyl-amino)azetidin-1-yl)pyridin-3-yl)-4-oxo-1,4-dihydro-quinoline-3-carboxylic acid]
≤ 1000 | CN(C)C1CN(c2ccc(-n3cc(C(=O)O)c(=O)c4cc(Cl)c(N5CC(c6cnn(C)c6)C[C@@H]5COc5ncccc5Cl)cc43)cn2)C1 (mixture of isomers) [Compound 188, rac-6-chloro-7-((2R)-2-(((3-chloropyridin-2-yl)oxy)methyl)-4-(1-methyl-1H-pyrazol-4-yl)pyrrolidin-1-yl)-1-(6-(3-(dimethyl-amino)azetidin-1-yl)pyridin-3-yl)-4-oxo-1,4-dihydro-quinoline-3-carboxylic acid]
≤ 1000 | Nc1ccc(-n2cc(C(=O)O)c(=O)c3cc(Cl)c(N4CCC[C@@H]4COc4ncccc4Cl)nc32)cn1 (racemic) [Compound 190, rac-(R)-1-(6-aminopyridin-3-yl)-6-chloro-7-(2-(((3-chloropyridin-2-yl)oxy)methyl)pyrrolidin-1-yl)-4-oxo-1,4-dihydro-1,8-naphthyridine-3-carboxylic acid]
≤ 1000 | Cn1cc(-n2cc(C(=O)O)c(=O)c3cc(Cl)c(N4CCC[C@@H]4COc4ncccc4Cl)nc32)cn1 (racemic) [Compound 191, rac-(R)-6-chloro-7-(2-(((3-chloropyridin-2-yl)oxy)methyl)pyrrolidin-1-yl)-1-(1-methyl-1H-pyrazol-4-yl)-4-oxo-1,4-dihydro-1,8-naphthyridine-3-carboxylic acid]
